The values below come from PubChem BioAssay (NCI).

Common to all, as to assay: DTP human tumour cell line panel, 48 h
Experiment [1] relates to SNB-75 CNS.
Experiment [2] deals with EKVX NSCLC.
Experiment [3] relates to SF-295 CNS.
In experiment [4] the test system is ACHN renal.
Experiment [5] relates to 786-0 renal.
Experiment [6] has as its system HOP-62 NSCLC.
The test system of experiment [7] is SF-268 CNS.
Experiment [8] relates to LOX IMVI melanoma.
Experiment [9] has as its system SNB-19 CNS.
Experiment [10] concerns COLO 205 colon.

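The compound was tested at five concentrations on cells cultured in 96-well plates, with a 48-hour exposure period. GI50 marks 50% less growth. TGI denotes the concentration required for complete inhibition of growth.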 Bounds are passed on as bounds.

Take `O=C(c1ccccn1)c1nc(-c2ccc(Cl)c(Cl)c2)nc2ccc(Cl)cc12`: the TGI is 35 µM in experiment [1]; > 100 µM in [2]; > 100 µM in [3]; > 100 µM in experiment [4]; > 100 µM in [5]; > 100 µM in experiment [6].
On to `O=C1OCC2=C1C(c1cccc(C(F)(F)F)c1)c1cc3c(cc1N2CCO)OCO3` (stereo unspecified), for which the GI50 was 4.78 µM in [7]; 2.02 µM in experiment [8]; 1.75 µM in experiment [2]; 0.801 µM in experiment [3]; 1.62 µM in experiment [9]; 3.09 µM in experiment [4]. Further, the GI50 in experiment [5] was 1.19 µM; in experiment [10], 1.18 µM; in [6], 1.97 µM. Moreover, the TGI in experiment [7], in experiment [8], in experiment [2], in [3], in [9] and in [4] was > 50 µM each time. The TGI in experiment [5] is > 50 µM; in experiment [10], 3.26 µM; in experiment [6], > 50 µM.
Turning to `O=C(O)c1c([N+](=O)[O-])cc(C(F)(F)F)cc1[N+](=O)[O-]`, the total growth inhibition concentration (TGI) in experiment [7], in [8], in experiment [2], in [3], in experiment [9] and in [4] was > 100 µM in each case. Besides, the total growth inhibition concentration (TGI) in experiment [5], in experiment [10] and in experiment [6] was > 100 µM throughout.
For `C/C=C/C(=O)[C@@H](O)C(C)C`, the TGI in [7], in experiment [1], in [2], in experiment [3], in experiment [9] and in experiment [4] was > 100 µM in each case. The TGI in [5] and in experiment [10] was > 100 µM throughout.
Regarding `C/C(=C1/N=C(c2ccccc2)OC1=O)c1ccc(C)cc1`, the total growth inhibition concentration (TGI) in experiment [7], in [8], in experiment [2], in [3], in experiment [9] and in experiment [4] was > 100 µM in each case. Also, the total growth inhibition concentration (TGI) in experiment [5], in experiment [10] and in experiment [6] was > 100 µM throughout.
`CN(C)c1ccc(/C=C/c2ccnc3ccc4ccccc4c23)cc1`: the concentration for total growth inhibition (TGI) in [7] is > 100 µM; in experiment [1], 70.4 µM; in [8], > 100 µM; in experiment [9] it was > 100 µM; in experiment [4], 57.3 µM; in experiment [5] it was > 100 µM. The TGI in experiment [10] and in [6] was > 100 µM each time.
Turning to `Cc1cc(Nc2cc(CN3CCOCC3)c3nc(C)c(Cc4ccc(Cl)cc4F)n3n2)n[nH]1`, the GI50 in experiment [7] was 1.03 µM; in experiment [1], 0.433 µM; in [8], 1.11 µM; in experiment [3] it was 1.79 µM; in experiment [9] it was 6.31 µM; in [4] it was 1.63 µM. The values for the GI50 in experiment [5], in experiment [10] and in experiment [6] were 1.67 µM, 0.684 µM and 1.84 µM, respectively. The TGI in experiment [7] is 4.65 µM; in experiment [1], 2.4 µM; in experiment [8] it was 2.69 µM; in experiment [3] it was 5.73 µM; in experiment [9], 19 µM; in experiment [4], 10.9 µM. Besides, the total growth inhibition concentration (TGI) in [5] was determined as 6.18 µM; in experiment [10] it was 2.01 µM; in experiment [6] it was 9.49 µM.
Consider `COc1cc(-c2cc(-c3nc4cc(Cl)c(Cl)cc4[nH]3)[nH]n2)cc(OC)c1OC`, for which the GI50 was 3.95 µM in [7]; 3.12 µM in experiment [1]; 3.04 µM in experiment [3]; 5.47 µM in experiment [9]; 3.54 µM in experiment [4]; 4.09 µM in [5]. The GI50 in [10] is 3.77 µM; in experiment [6], 3.43 µM. Moreover, the TGI in experiment [7] is 14.9 µM; in experiment [1], 14.2 µM; in experiment [3], 11.5 µM; in experiment [9], 22.2 µM; in experiment [4] it was 12.8 µM; in experiment [5], 16.2 µM. Also, the concentration for total growth inhibition (TGI) in experiment [10] came to 12.7 µM; in experiment [6] it was 11 µM.
With `CCOC(=O)/C(=C/c1ccccc1)C(=O)c1ccccc1`, the GI50 was 4.37 µM in experiment [7]; 2.95 µM in [1]; 1.8 µM in [8]; 4.19 µM in experiment [3]; 5.84 µM in experiment [9]; 2.62 µM in [4]. Moreover, the GI50 in experiment [5] was 3.02 µM; in [10], 2.43 µM; in [6], 2.01 µM. Further, the TGI worked out at 21.1 µM in experiment [7]; 14.5 µM in [1]; 3.82 µM in experiment [8]; 15.2 µM in experiment [3]; 20.7 µM in experiment [9]; 6.99 µM in experiment [4]. Also, the TGI in [5] came to 8.09 µM; in experiment [10], 5.04 µM; in experiment [6] it was 4.37 µM.
Consider `CC1(C(=O)NCCN(CCNC(=O)C2(C)CC3(C)CC(C)(C2)C(=O)NC3=O)CCNC(=O)C2(C)CC3(C)CC(C)(C2)C(=O)NC3=O)CC2(C)CC(C)(C1)C(=O)NC2=O` (stereo unspecified), for which the TGI in experiment [1], in experiment [2], in experiment [3], in experiment [9], in experiment [4] and in [5] was > 100 µM each time. Besides, the TGI in experiment [10] and in [6] was > 100 µM throughout.
Consider `COc1ccc(C2=CC(c3ccc(Oc4ccnc5cc(Cl)ccc45)c(OC)c3)c3c(nc(OC)[nH]c3=O)N2)cc1` (stereo unspecified), for which the GI50 was 5.09 µM in [7]; 9.44 µM in experiment [1]; 4.04 µM in experiment [8]; 6.42 µM in experiment [3]; 61.4 µM in [9]; 5.24 µM in [4]. Besides, the results for the GI50 in experiment [5], in [10] and in experiment [6] were 18.4 µM, 79.9 µM and 84.9 µM, respectively. Besides, the TGI in [7] is > 100 µM; in experiment [1] it was > 100 µM; in experiment [8], 67.2 µM; in experiment [3], > 100 µM; in experiment [9], > 100 µM; in [4], > 100 µM. Besides, the TGI in experiment [5], in [10] and in experiment [6] was > 100 µM each time.

For orientation: TGI means the concentration giving total growth inhibition. The low end stands for greater sensitivity of the cells, the high end for lower sensitivity of the cells. As usually defined, the GI50 is the concentration giving 50% growth inhibition.
